# Laboratory results reported in the supplement of paper PMC11061612.
# Key:
# Assay in all cases: Bliss excess, mean over the matrix (fraction); higher = more synergy
# [1] = test system: LC4-1 (B-Lymphoblastic Leukemia)
# Method in brief: (§1)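 Cell lines grown in DMEM/F12 or RPMI with 10% FBS were plated in 1536-well plates and held 24 hours at 37°C, 5% CO2 before 72 hours of exposure to two-drug dose matrices, with DMSO typically at 0.2%. CellTiter-Glo 2.0 luminescence gave viability, which was converted to inhibition. Vehicle wells were set to 0 and blank wells to 1. Combination Emax is the second-highest inhibition in the matrix, and Bliss excess is the observed combination effect minus the expected EA + EB − EA·EB, where EA and EB are the single-agent effects.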
# [2] = test system: EBC-1 (Squamous Cell Lung Carcinoma)
# Method in brief: as §1
# [3] = test system: NCI-H2405 (Lung Adenocarcinoma)
# Method in brief: as §1
# [4] = test system: KLE (Endometrial Carcinoma)
# Method in brief: as §1
# [5] = test system: KU-19-19 (Bladder Carcinoma)
# Method in brief: as §1
# [6] = test system: EW-13 (Ewing's Sarcoma)
# Method in brief: as §1
# [7] = test system: OVISE (Ovarian Carcinoma)
# Method in brief: as §1
# [8] = test system: LOU-NH91 (Squamous Cell Lung Carcinoma)
# Method in brief: as §1
# [9] = test system: ASH-3 (Thyroid Gland Carcinoma)
# Method in brief: as §1
# [10] = test system: H-EMC-SS (Chondrosarcoma)
# Method in brief: as §1
# [11] = test system: KINGS-1 (Low Grade Glioma)
# Method in brief: as §1
# [12] = test system: SNU-C1 (Colorectal Carcinoma)
# Method in brief: as §1
# [13] = test system: DG-75 (Burkitt's Lymphoma)
# Method in brief: as §1
# [14] = test system: HuP-T3 (Pancreatic Carcinoma)
# Method in brief: as §1
# [15] = test system: BT-20 (Breast Carcinoma)
# Method in brief: as §1
# [16] = test system: U-87-MG (Glioblastoma)
# Method in brief: as §1
# [17] = test system: SCC-9 (Oral Cavity Carcinoma)
# Method in brief: as §1
# [18] = test system: IMR-5 (Neuroblastoma)
# Method in brief: as §1
# [19] = test system: NCI-H322M (Lung Adenocarcinoma)
# Method in brief: as §1
# [20] = test system: OCUB-M (Breast Carcinoma)
# Method in brief: as §1
SMILES,Bliss excess [1],Bliss excess [2],Bliss excess [3],Bliss excess [4],Bliss excess [5],Bliss excess [6],Bliss excess [7],Bliss excess [8],Bliss excess [9],Bliss excess [10],Bliss excess [11],Bliss excess [12],Bliss excess [13],Bliss excess [14],Bliss excess [15],Bliss excess [16],Bliss excess [17],Bliss excess [18],Bliss excess [19],Bliss excess [20]
"Cc1c2c(nn1C)CSCc1cc(n(C)n1)CSc1cc(c3ccccc3c1)OCCCc1c(C(=O)O)n(C)c3c-2c(Cl)ccc13 [AZD5991] + C[C@@H](Nc1cc(F)cc(F)c1)c1cc(C(=O)N(C)C)cc2c(=O)cc(N3CCOCC3)oc12 [AZD8186] (first compound max 1 µM, 7x7, partner max 3 µM)",-0.057,0.0298,-0.0114,0.0077,0.0033,-0.0535,0.0069,-0.0542,0.0027,-0.0325,-0.0111,-0.0148,0.0008,-0.0622,0.0382,-0.097,-0.0058,-0.0006,0.0225,-0.0067
"Cc1c2c(nn1C)CSCc1cc(n(C)n1)CSc1cc(c3ccccc3c1)OCCCc1c(C(=O)O)n(C)c3c-2c(Cl)ccc13 [AZD5991] + CC1(C)CCC(CN2CCN(c3ccc(C(=O)NS(=O)(=O)c4ccc(NCC5CCOCC5)c([N+](=O)[O-])c4)c(Oc4cnc5[nH]ccc5c4)c3)CC2)=C(c2ccc(Cl)cc2)C1 [Venetoclax] (first compound max 1 µM, 7x7, partner max 1 µM)",0.0705,-0.0333,-0.0346,-0.0505,0.0578,0.0893,0.0031,-0.0589,-0.038,0.0646,-0.0771,-0.0458,-0.0246,-0.0358,0.0755,-0.0877,-0.0278,0.0656,-0.0378,0.006
"NC1(C(=O)N[C@@H](CCO)c2ccc(Cl)cc2)CCN(c2ncnc3[nH]ccc23)CC1 [Capivasertib] + Cn1cnc2c(F)c(Nc3ccc(Br)cc3Cl)c(C(=O)NOCCO)cc21 [Selumetinib] (first compound max 10 µM, 7x7, partner max 10 µM)",0.147,0.0557,0.0153,-0.011,-0.0364,0.0097,-0.0063,-0.0027,0.064,0.0635,0.0272,-0.0085,0.0439,-0.0559,0.0036,-0.0316,0.145,0.0034,0.0035,0.0081
"C[C@@H](c1ccc2nccn2c1)n1nnc2ncc(-c3cnn(C)c3)nc21 [Savolitinib] + CC1(C)CCC(CN2CCN(c3ccc(C(=O)NS(=O)(=O)c4ccc(NCC5CCOCC5)c([N+](=O)[O-])c4)c(Oc4cnc5[nH]ccc5c4)c3)CC2)=C(c2ccc(Cl)cc2)C1 [Venetoclax] (first compound max 1 µM, 7x7, partner max 1 µM)",-0.0091,-0.0642,-0.0793,-0.111,-0.0468,-0.0796,-0.0481,-0.0801,-0.0329,-0.0186,-0.0566,-0.0363,-0.0021,-0.0912,-0.0427,-0.0699,-0.0328,-0.0158,-0.0536,-0.0371
"CN(CCO)CC[C@H](CSc1ccccc1)Nc1ccc(S(=O)(=O)NC(=O)c2ccc(N3CCC([C@@H](O)c4ccccc4-c4ccc(Cl)cc4)CC3)cc2)cc1S(=O)(=O)C(F)(F)F [AZD4320] + C[C@@H]1COCCN1C2=NC(=NC(=C2)C3(CC3)[S@](=N)(=O)C)C4=C5C=CNC5=NC=C4 [AZD6738] (first compound max 1 µM, 7x7, partner max 10 µM)",0.0481,-0.015,-0.0448,-0.0709,-0.0381,-0.0009,-0.0206,0.0126,-0.0011,-0.0351,-0.0806,-0.115,-0.0217,-0.0695,0.0778,-0.0248,-0.0587,0.102,-0.0335,0.0055
"CN(CCO)CC[C@H](CSc1ccccc1)Nc1ccc(S(=O)(=O)NC(=O)c2ccc(N3CCC([C@@H](O)c4ccccc4-c4ccc(Cl)cc4)CC3)cc2)cc1S(=O)(=O)C(F)(F)F [AZD4320] + Cc1cc2ncnn2cc1Nc1ncc2c(n1)n(C1CCOCC1)c(=O)n2C [AZD7648] (first compound max 1 µM, 7x7, partner max 10 µM)",0.0066,-0.0396,-0.0351,-0.0116,-0.0359,-0.0223,-0.0033,-0.012,-0.0866,-0.0218,-0.0152,-0.0376,0.0021,-0.0362,0.0391,-0.0503,-0.0121,0.0335,-0.0426,0.0104
"Cc1nc(Nc2ncc(C(=O)Nc3c(C)cccc3Cl)s2)cc(N2CCN(CCO)CC2)n1 [Dasatinib] + CC(=O)Nc1cccc(-n2c(=O)n(C3CC3)c(=O)c3c(Nc4ccc(I)cc4F)n(C)c(=O)c(C)c32)c1 [Trametinib] (first compound max 2 µM, 7x7, partner max 1 µM)",-0.0543,0.0399,0.0721,-0.0052,0.0906,-0.0443,0.0504,-0.0403,0.0994,0.0331,-0.0416,-0.0616,0.0387,0.0459,-0.0878,-0.0575,0.0784,-0.0059,0.0004,-0.0384
"Cn1cnc2c(F)c(Nc3ccc(Br)cc3Cl)c(C(=O)NOCCO)cc21 [Selumetinib] + CC(C)n1c(=O)n(C)c2cnc3cc(F)c(-c4ccc(OCCCN5CCCCC5)nc4)cc3c21 [AZD1390] (first compound max 10 µM, 7x7, partner max 0.3 µM)",-0.0312,-0.0265,0.0387,-0.0057,-0.0257,-0.0428,-0.0339,0.0028,-0.0553,-0.0135,-0.0115,-0.0001,-0.024,-0.0046,-0.0189,-0.027,0.0185,0.0128,-0.0601,-0.0332
"CN(CCO)CC[C@H](CSc1ccccc1)Nc1ccc(S(=O)(=O)NC(=O)c2ccc(N3CCC([C@@H](O)c4ccccc4-c4ccc(Cl)cc4)CC3)cc2)cc1S(=O)(=O)C(F)(F)F [AZD4320] + CN(C)CCCOc1ccc(-c2ccc3ncc4c(c3c2)n(C2CCOCC2)c(=O)n4C)cn1 [AZD0156] (first compound max 1 µM, 7x7, partner max 1 µM)",0.0937,-0.0075,-0.0378,-0.0824,-0.0364,-0.0303,-0.0521,0.0054,0.0341,-0.0374,0.007,-0.0283,-0.0183,-0.0429,0.0323,-0.0331,-0.0423,0.0284,-0.0432,0.0044
"CN(CCO)CC[C@H](CSc1ccccc1)Nc1ccc(S(=O)(=O)NC(=O)c2ccc(N3CCC([C@@H](O)c4ccccc4-c4ccc(Cl)cc4)CC3)cc2)cc1S(=O)(=O)C(F)(F)F [AZD4320] + C1CN(CCC1(C(=O)N[C@@H](CCO)C2=CC=C(C=C2)Cl)N)C3=NC=NC4=C3C=CN4 [Capivasertib] (first compound max 1 µM, 7x7, partner max 3 µM)",0.0319,-0.0181,-0.0513,-0.0467,-0.0394,-0.0633,-0.0459,-0.067,-0.0192,-0.0081,-0.103,-0.0886,-0.0093,-0.0678,0.0427,-0.045,-0.0761,0.154,-0.0402,-0.0174
"COc1nnc2ccc(N3CCC(c4ccc(OCCN5CCN(C)C(=O)[C@H]5C)cc4)CC3)nn12 [AZD5153] + Cn1cnc2c(F)c(Nc3ccc(Br)cc3Cl)c(C(=O)NOCCO)cc21 [Selumetinib] (first compound max 1 µM, 7x7, partner max 10 µM)",0.012,0.0979,-0.0297,-0.0636,-0.0007,-0.0577,-0.0304,-0.0463,-0.0338,0.0176,-0.029,-0.0447,-0.0177,0.0075,0.0309,-0.0591,0.042,-0.0047,0.0052,-0.0036
"CC(=O)Nc1cccc(-n2c(=O)n(C3CC3)c(=O)c3c(Nc4ccc(I)cc4F)n(C)c(=O)c(C)c32)c1 [Trametinib] + Cc1nc(-c2cn3c(n2)-c2ccc(-c4cnn(C(C)(C)C(N)=O)c4)cc2OCC3)n(C(C)C)n1 [Taselisib] (first compound max 1 µM, 7x7, partner max 10 µM)",0.107,0.0674,0.107,-0.0509,0.0597,-0.0107,0.0114,0.116,0.127,0.106,0.151,-0.0022,0.0419,0.118,0.118,0.0848,0.192,0.0467,0.0404,-0.0123
"Cc1c2c(nn1C)CSCc1cc(n(C)n1)CSc1cc(c3ccccc3c1)OCCCc1c(C(=O)O)n(C)c3c-2c(Cl)ccc13 [AZD5991] + Cc1cc2ncnn2cc1Nc1ncc2c(n1)n(C1CCOCC1)c(=O)n2C [AZD7648] (first compound max 1 µM, 7x7, partner max 10 µM)",0.0017,-0.0127,-0.0391,-0.0598,0.0025,0.014,-0.043,-0.0307,-0.0739,0.0025,-0.0095,-0.0742,0.0116,-0.0677,-0.0139,-0.0311,-0.0716,0.0226,-0.05,-0.0448
"Cn1cnc2c(F)c(Nc3ccc(Br)cc3Cl)c(C(=O)NOCCO)cc21 [Selumetinib] + CCN(CCO)CCCOc1ccc2c(Nc3cc(CC(=O)Nc4cccc(F)c4)[nH]n3)ncnc2c1 [AZD2811] (first compound max 10 µM, 7x7, partner max 1 µM)",-0.0505,-0.003,-0.0127,-0.0456,0.0258,-0.0108,0.0202,-0.0096,0.0505,-0.0233,-0.0447,-0.0494,0.0193,-0.0526,0.0328,-0.0443,0.0722,-0.0062,-0.0069,-0.0959
